What was measured:
[1] = tested on: bleomycin-induced scleroderma in C57BL/6 mice; assay: Bleomycin-induced scleroderma in mice; type: in vivo, mouse
Description: […] The skin was injected S.C. with 20(OH)D3 or vehicle daily within the same 1.5 cm^2 area. On day 22, all mice were euthanized and skin in the shaved area of the back was treated with a depilatory agent after which a biopsy of 1 cm circumference encompassing the S.C. injection site was taken to a depth to include the full thickness of the dermis. The skin samples from 5 randomly selected mice from each group were weighed and snap frozen in liquid nitrogen. Later, the skin samples were thawed and treated overnight with pepsin (0.1 mg/ml) of 0.5 M acetic acid at 4° C. with constant rocking to remove terminal non-helical telopeptides to release the collagen into solution. Total solubilized collagen was quantitative using a Sircol Collagen Assay kit using type I bovine collagen to obtain a standard curve. The collagen content of the skin samples was expressed as μg of collagen per mg tissue weight. Results for the groups were expressed as mean±SEM and analyzed by one way ANOVA with p values<0.05 considered to be statistically significant.

CYP27A1 = target: T1, CYP27A1 (Homo sapiens, UniProt Q02318); assay: Metabolism by CYP27A1 (cyclodextrin or phospholipid vesicles)
T1 sequence (Q02318 34-531): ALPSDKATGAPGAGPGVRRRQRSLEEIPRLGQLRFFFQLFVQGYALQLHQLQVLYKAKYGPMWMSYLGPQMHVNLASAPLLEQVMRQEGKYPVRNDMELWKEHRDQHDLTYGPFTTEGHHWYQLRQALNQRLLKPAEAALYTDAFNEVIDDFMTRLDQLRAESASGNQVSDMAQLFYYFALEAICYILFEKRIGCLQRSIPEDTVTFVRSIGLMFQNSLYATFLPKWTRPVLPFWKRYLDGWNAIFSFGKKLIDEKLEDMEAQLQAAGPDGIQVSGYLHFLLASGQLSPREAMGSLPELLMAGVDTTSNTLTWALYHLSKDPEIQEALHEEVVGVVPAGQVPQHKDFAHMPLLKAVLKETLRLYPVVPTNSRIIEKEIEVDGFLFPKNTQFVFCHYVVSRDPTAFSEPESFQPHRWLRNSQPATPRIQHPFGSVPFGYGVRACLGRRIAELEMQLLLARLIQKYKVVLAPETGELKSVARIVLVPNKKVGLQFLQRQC
Description: To test enzymatic metabolism of 20S(OH)D3 and 20R(OH)D3, the substrates were incorporated into phospholipid vesicles with the ratio of substrate to phospholipid being 0.025 mol/mol phospholipid. Vesicles were incubated with 2 μM bovine CYP11A1 or 0.06 μM human CYP27B1 for up to 10 min. To test enzymatic metabolism of 20(OH)D3 in CYP24, the substrate was incorporated into phospholipids vesicles with 0.15-0.5 μM CYP24. To test enzymatic metabolism of 20(OH)D3 in CYP27A1, purified CYP27A1 was preincubated with the vesicles for 6 min at 37° C. Adrenodoxin was added last to initiate the reaction. For kinetic experiments, the incubations were typically 0.5 mL and were carried out over the initial linear period of the reaction (10 min for vitamin D3 and cholesterol and 30 min for 20(OH)D3).
Kinetic characterization of the metabolism of 20(OH)D3 by CYP27A1 was carried out with substrate dissolved in either cyclodextrin or phospholipid vesicle. Vitamin D3 and 20(OH)D3 were incubated with 0.4 μM CYP27A1 and 1 μM CYP27A1, respectively, for 10 and 30 min. The products were analyzed by reverse phase HPLC. The hyperbolic curves were fitted using the equation v/[E]=(kcat—[S])/(Km+[S]) where v is reaction velocity, [E] is the CYP27A1 concentration, and [S] the substrate concentration.

[2] = tested on: AbC1 hamster melanoma cells; assay: Soft agar colony formation, AbC1 melanoma; type: cell-based
Description: Growth and survival of prostate cancer cells (PC3) and melanoma cells SKMEL 188 and AbC1 was determined by following their ability to form colonies in soft agar. Cells growing in monolayer culture were trypsinized and resuspended (1,000 cells/well) in 0.25 ml medium containing 0.4% agarose and 5% charcoal stripped serum (HyClone).
Cell suspensions were added to 0.8% agar layer in 24 well plates. Compounds were added from ethanol stocks (100 μM) to final concentrations of 0.1 nM or 10 nM, in 100 μL media. Each condition was tested in quadruplicate. An ethanol solvent control (amount of ethanol equivalent to test) as well as a media-only control was included in the assay. […] […] Colonies were then counted under the microscope and number of units was calculated as number of colonies formed divided by the number of cells seeded×100.

NFκB = assay: Electrophoretic mobility shift assay for NF-κB activation; type: cell-based, human; details: HaCaT nuclear extracts, 10^−7 M
From the text: Electrophoretic mobility shift assay (EMSA) was done using the Odyssey Infrared Imaging System (LI-COR, Inc., Lincoln, Nebr.). The synthetic IRDye-labeled oligonucleotide (LI-COR) used for the DNA mobility shift assay contained the wild-type VDRE sequence sp1 promoter and part of INVOLUCRIN sequence contained the sequence: 5′-GCGGGAGGCAGATCTGGCAGATACTGA-3′ (SEQ ID NO: 3). Oligo was end labeled with infrared dye 700. Unlabeled oligo contained the same sequence. The DNA binding reaction was set up using 2.5 μg of the nuclear extract mixed with oligonucleotide and gel shift binding buffer consisting of: 2.5 mmol/L DTT, 0.25% Tween-20 and 0.25 mg/ml poly(dl):poly(dC) according to the LI-COR protocol. The reaction was incubated at room temperature in the dark for 30 minutes. For NF-κB activation p65 antibody was added to the 1 sample and incubated for the 30 min. Orange loading dye (2 μl of 10×) was added to each sample and loaded on the prerun 5% polyacrylamide gel and ran at 80V for 1 hour. The gel was scanned using Odyssey Infrared Imaging System.
HaCaT keratinocytes were treated with 20,23-dihydroxycholecalciferol for indicated time: 0 h, 30 min, 1 h, 4 h, 16 h and 24 h, at the concentration of 10^−7 [M]. […]

**Q.** How did the “bleomycin-induced increase of total skin collagen” value ([1]; 3 μg/kg daily dose, 21 days) turn out when `C=C1CC[C@H](O)C/C1=C/C=C1\CCC[C@@]2(C)[C@H]1CC[C@@H]2[C@@](C)(O)CCCC(C)C` [20(OH)D3, (5Z,7E)-9,10-secocholesta-5,7,10(19)-triene-3β,20-diol] was run?
**A.** prevented

**Q.** What about the “body weight less than the vehicle control group” value ([1]; bleomycin + 20(OH)D3, 21 days) of the same molecule?
**A.** 13.6%

**Q.** And the kcat (CYP27A1; cyclodextrin)?
**A.** 0.013 ± 0.00033 s⁻¹

**Q.** And the kcat (CYP27A1; phospholipid vesicles)?
**A.** 0.0126 ± 0.001 s⁻¹

**Q.** Which “decrease of colony formation in soft agar” value ([2]; AbC1, 0.1 nM) does the source give for `C=C1CC[C@H](O)C/C1=C/C=C1\CCC[C@]2(C)[C@@H](C(C)(O)CC(O)CC(C)C)CC[C@@H]12` (stereo partly drawn) [20,23-dihydroxycholecalciferol, (5Z,7E)-9,10-secocholesta-5,7,10(19)-triene-3β,20,23-triol] here?
**A.** 30%

**Q.** What about the “decrease of colony formation in soft agar” value ([2]; AbC1, 10 nM) of the same molecule?
**A.** approximately 50%

**Q.** And the “NFκB DNA-binding activity (EMSA)” value (NFκB)?
**A.** inhibited the NFκB binding activity

Source: patent US20120258938A1, “Enzymatic Production or Chemical Synthesis and Uses for 5,7-Dienes and UVB Conversion Products Thereof” (priority 2008, published 2012)
